pKd: −log10 of the molar value. ≈ marks a conversion by molar mass, not a printed value. Entries after “also recorded” stand apart in the source; their conditions may differ.
Key:
[1] = test system: Acenitobacter baumanii; assay: Activity against other bacterial pathogens (preliminary); assay type: cell-based
[2] = test system: MvfR regulon; assay: pqsA gene expression (pqsA-GFP reporter); assay type: cell-based, P. aeruginosa; conditions: Pseudomonas aeruginosa, read-out: pqsA @10 uM (%), compound at 10 uM
[3] = Solubility; assay type: physicochemical; conditions: initial solubility studies; listed as D88
Excerpt: FIGS. 6A-6E show pharmacological properties of a representative group of MvfR inhibitors.

[4] = biological target: T1, MvfR (Pseudomonas aeruginosa, UniProt Q9I4X0); assay: Surface plasmon resonance (SPR) binding to purified MvfR co-inducer binding domain; parameters: species or system P. aeruginosa; conditions: mean KD value, SPR; mean over the compounds named
T1 construct: made in house
T1 sequence (Q9I4X0 91-332): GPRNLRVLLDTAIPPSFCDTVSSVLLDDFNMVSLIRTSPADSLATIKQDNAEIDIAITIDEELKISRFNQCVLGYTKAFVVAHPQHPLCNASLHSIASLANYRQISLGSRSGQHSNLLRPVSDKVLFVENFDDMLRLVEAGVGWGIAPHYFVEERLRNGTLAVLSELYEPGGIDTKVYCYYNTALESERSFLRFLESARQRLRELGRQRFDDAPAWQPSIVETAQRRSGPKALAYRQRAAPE
Procedure: Compounds identified to interfere with MvfR were confirmed for the direct physical interaction with this protein. Using SPR, the percentage of compound's binding to the purified MvfR protein was analyzed and used to determine the binding parameters (KD, kon and koff)—thus determining the kinetic of interaction with MvfR.
The recombinant MvfR co-inducer binding domain was purified using Ni-NTA chromatography, as previously reported (see e.g., Xiao et al, Microbiology, 2006, 152:1679-1686; Starkey et al, PLoS Pathog. 2014, 10:e1004321; and Kefala et al, Acta. Crystallogr. Sect. F. Struct. Biol. Cryst. Commun. 2012, 68:695-697). The purified protein was immobilized with the amine coupling method at a target level of 5000 RU on Chip. SPR was performed according to previously reported procedures (see e.g., Starkey et al, PLoS Pathog. 2014, 10:e1004321; Maura et al, ACS Chemical Biology, 2017, 12:1435-1443; and Kitao et al, MBIO, in press). […] Table 3 lists the steady-state KD data measured by SPR.

[5] = test system: MvfR regulon; assay: Quantification of pyocyanin (OD520nm of chloroform-extracted cultures); assay type: cell-based, P. aeruginosa; conditions: Pseudomonas aeruginosa
[6] = test system: P. aeruginosa MDR clinical isolates; assay: AT/P cell formation in MDR clinical isolates; assay type: cell-based; conditions: 10 μM; MDR clinical isolates incl. mucoid strain from CF patients
Procedure: (§1) Statistical significance to the control was assessed using one-way ANOVA+Dunnett's post-test. P<0.001-0.005.
AT/P efficacy of compounds using CFU plating was assessed by growning over-night, cultures diluted 1:100 in triplicate in fresh LB medium in the presence or absence of inhibitor, and re-grown to an OD600 of 2.0 while shaking under aeration at 37° C. Before the antibiotic treatment, aliquots were plated to obtain reference colony counts. […] At 24-h and 48-h time points, the number of surviving bacteria were assessed by plating. The survival fraction of AT/P cells was calculated by dividing the number of surviving bacteria by the number of live bacteria that were present before the antibiotic treatment (reference datum) and expressed as a mean (±SD) of at least three replicate experiments. Using the same CFU plating assay, the efficacy of all compounds identified will be tested against additional antibiotic classes: b-lactams (ceftazidime, cefepime and imipenem), quinolones (ciprofloxacin, moxifloxacin, and levofloxacin), and aminoglycosides (gentamicin and tobramycicn).

[7] = test system: adhesive intestinal E. coli; assay: Activity against other bacterial pathogens (preliminary); assay type: cell-based
[8] = test system: PA clinical isolate PA14; assay: Biofilm formation (microtiter biofilm assay); assay type: cell-based, P. aeruginosa; conditions: 10 μM
Procedure: as §1
Inhibition of biofilm formation was assessed by quantifying initiation of biofilm formation via assessment of surface adhesion of PA using the microtiter biofilm assay as described in O'Toole, G A. J. Vis. Exp. 2011, Microtiter Dish Biofilm Formation Assay. Using single optimized agents, this assay allowed for various concentrations of each compound and several incubation times to be investigated in an HTS manner.

[9] = test system: Pseudomonas aeruginosa MDR clinical isolates; assay: Pyocyanin production in MDR clinical isolates; assay type: cell-based; conditions: 10 μM; listed as D88
Procedure: Percentage of pyocyanin production is presented in presence of 10 μM of D57 or D88 compounds. Tukey's multiple comparisons test p<0.0001.
Pyocyanin levels were determined by measuring OD520nm of chloroform-extracted cultures.

For N#Cc1ccc(NC(=O)C(F)C(=O)Nc2ccc(Oc3ccccc3)cc2)cc1 (stereo not drawn) [Compound 103], the “potency against Acenitobacter baumanii” value [1] was “potent”, the activity at 10 µM [2] was 1.95% and the solubility [3] was 190 µg/mL (≈ 488 µM). For the same molecule, the pKd [4] was 6.60, the IC50 ([5]; read-out: IC50 pyocyanin (μM)) was 0.95 µM and the activity at 1 µM ([5]; read-out: pyocyanin @1 uM (%), compound at 1 uM) was 28.1%. The activity at 10 µM ([5]; read-out: pyocyanin @10 uM (%), compound at 10 uM) was 4.4%, the activity at 50 µM ([5]; read-out: pyocyanin @50 uM (%), compound at 50 uM) was 5.58% and the “activity against antibiotic tolerant/persister cell formation” value [6] was “highly active”. For the same molecule, the “potency against adhesive intestinal E. coli” value [7] was “potent”, the “activity against biofilm formation” value [8] was “highly active” and the “activity on pyocyanin production in MDR clinical isolates” value [9] was “highly active; also recorded: confirmed”.
